Assay results reported in PubChem BioAssay (NCI).
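In this assay, cells in 96-well plates receive the compound at five concentrations for 48 hours. Endpoints are linearly interpolated between the surrounding concentrations. GI50 = concentration required for 50% inhibition of growth. The concentration for full growth arrest is given as TGI.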

What was measured:
Assay in all cases: inhibition of tumour cell growth, NCI panel, 48 h
786-0 renal = tested on: 786-0 renal
A498 renal = tested on: A498 renal
A549 NSCLC = tested on: A549 NSCLC
ACHN renal = tested on: ACHN renal
BT-549 breast = tested on: BT-549 breast
CAKI-1 renal = tested on: CAKI-1 renal
CCRF-CEM leukemia = tested on: CCRF-CEM leukemia
COLO 205 colon = tested on: COLO 205 colon
DU-145 prostate = tested on: DU-145 prostate
EKVX NSCLC = tested on: EKVX NSCLC
HCC-2998 colon = tested on: HCC-2998 colon
HCT-116 colon = tested on: HCT-116 colon
HCT-15 colon = tested on: HCT-15 colon
HL-60(TB) leukemia = tested on: HL-60(TB) leukemia
HOP-62 NSCLC = tested on: HOP-62 NSCLC
HOP-92 NSCLC = tested on: HOP-92 NSCLC
HS 578T breast = tested on: HS 578T breast
HT29 colon = tested on: HT29 colon
IGROV1 ovarian = tested on: IGROV1 ovarian
K-562 leukemia = tested on: K-562 leukemia
KM12 colon = tested on: KM12 colon
LOX IMVI melanoma = tested on: LOX IMVI melanoma
M14 melanoma = tested on: M14 melanoma
MALME-3M melanoma = tested on: MALME-3M melanoma
MDA-MB-231 breast = tested on: MDA-MB-231 breast
MDA-MB-435 = tested on: MDA-MB-435
MDA-MB-468 breast = tested on: MDA-MB-468 breast
MOLT-4 leukemia = tested on: MOLT-4 leukemia
NCI-H226 lung = tested on: NCI-H226 lung
NCI-H23 lung = tested on: NCI-H23 lung
NCI-H460 lung = tested on: NCI-H460 lung
NCI-H522 lung = tested on: NCI-H522 lung
NCI/ADR-RES ovarian = tested on: NCI/ADR-RES ovarian
OVCAR-3 ovarian = tested on: OVCAR-3 ovarian
OVCAR-4 ovarian = tested on: OVCAR-4 ovarian
OVCAR-5 ovarian = tested on: OVCAR-5 ovarian
OVCAR-8 ovarian = tested on: OVCAR-8 ovarian
PC-3 prostate = tested on: PC-3 prostate
RPMI-8226 leukemia = tested on: RPMI-8226 leukemia
RXF 393 renal = tested on: RXF 393 renal
SF-268 CNS = tested on: SF-268 CNS
SF-295 CNS = tested on: SF-295 CNS
SF-539 CNS = tested on: SF-539 CNS
SK-MEL-2 melanoma = tested on: SK-MEL-2 melanoma
SK-MEL-28 melanoma = tested on: SK-MEL-28 melanoma
SK-MEL-5 melanoma = tested on: SK-MEL-5 melanoma
SK-OV-3 ovarian = tested on: SK-OV-3 ovarian
SN12C renal = tested on: SN12C renal
SNB-19 CNS = tested on: SNB-19 CNS
SNB-75 CNS = tested on: SNB-75 CNS
SR leukemia = tested on: SR leukemia
SW-620 colon = tested on: SW-620 colon
T-47D breast = tested on: T-47D breast
TK-10 renal = tested on: TK-10 renal
U251 CNS = tested on: U251 CNS
UACC-257 melanoma = tested on: UACC-257 melanoma
UACC-62 melanoma = tested on: UACC-62 melanoma
UO-31 renal = tested on: UO-31 renal

Structure (SMILES): COc1cc2c3c(n(CCCN4CCOCC4)c(=O)c2cc1OC)-c1nc2c(cc1C3=O)OCO2
- GI50 (786-0 renal): 0.593 µM
- TGI (786-0 renal): 29.4 µM
- GI50 (A498 renal): > 69.2 µM
- TGI (A498 renal): > 100 µM
- GI50 (A549 NSCLC): 3.43 µM
- TGI (A549 NSCLC): > 100 µM
- GI50 (ACHN renal): 0.15 µM
- TGI (ACHN renal): > 100 µM
- GI50 (BT-549 breast): 0.619 µM
- TGI (BT-549 breast): 8.43 µM
- GI50 (CAKI-1 renal): 0.159 µM
- TGI (CAKI-1 renal): > 100 µM
- GI50 (CCRF-CEM leukemia): 0.0351 µM
- TGI (CCRF-CEM leukemia): 1.72 µM
- GI50 (COLO 205 colon): 1.36 µM
- TGI (COLO 205 colon): > 100 µM
- GI50 (DU-145 prostate): 0.418 µM
- TGI (DU-145 prostate): > 100 µM
- GI50 (EKVX NSCLC): 1.97 µM
- TGI (EKVX NSCLC): > 100 µM
- GI50 (HCC-2998 colon): 1.86 µM
- TGI (HCC-2998 colon): > 100 µM
- GI50 (HCT-116 colon): 0.416 µM
- TGI (HCT-116 colon): > 100 µM
- GI50 (HCT-15 colon): 1.24 µM
- TGI (HCT-15 colon): > 100 µM
- GI50 (HL-60(TB) leukemia): 1.25 µM
- TGI (HL-60(TB) leukemia): > 100 µM
- GI50 (HOP-62 NSCLC): 0.051 µM
- TGI (HOP-62 NSCLC): 0.748 µM
- GI50 (HOP-92 NSCLC): 2.87 µM
- TGI (HOP-92 NSCLC): > 100 µM
- GI50 (HS 578T breast): 25.3 µM
- TGI (HS 578T breast): > 100 µM
- GI50 (HT29 colon): 0.442 µM
- TGI (HT29 colon): 11.6 µM
- GI50 (IGROV1 ovarian): > 100 µM
- TGI (IGROV1 ovarian): > 100 µM
- GI50 (K-562 leukemia): 0.177 µM
- TGI (K-562 leukemia): > 82.9 µM
- GI50 (KM12 colon): > 53.9 µM
- TGI (KM12 colon): > 100 µM
- GI50 (LOX IMVI melanoma): 0.17 µM
- TGI (LOX IMVI melanoma): 1.47 µM
- GI50 (M14 melanoma): 0.25 µM
- TGI (M14 melanoma): > 100 µM
- GI50 (MALME-3M melanoma): 1.75 µM
- TGI (MALME-3M melanoma): > 100 µM
- GI50 (MDA-MB-231 breast): 2.38 µM
- TGI (MDA-MB-231 breast): 5.62 µM
- GI50 (MDA-MB-435): 0.828 µM
- TGI (MDA-MB-435): > 100 µM
- GI50 (MDA-MB-468 breast): 0.13 µM
- TGI (MDA-MB-468 breast): 0.51 µM
- GI50 (MOLT-4 leukemia): 0.0581 µM
- TGI (MOLT-4 leukemia): 16 µM
- GI50 (NCI-H226 lung): 0.495 µM
- TGI (NCI-H226 lung): > 33 µM
- GI50 (NCI-H23 lung): 0.185 µM
- TGI (NCI-H23 lung): 1.52 µM
- GI50 (NCI-H460 lung): 0.0772 µM
- TGI (NCI-H460 lung): 2.35 µM
- GI50 (NCI-H522 lung): 0.277 µM
- TGI (NCI-H522 lung): 15.7 µM
- GI50 (NCI/ADR-RES ovarian): 0.327 µM
- TGI (NCI/ADR-RES ovarian): 3.68 µM
- GI50 (OVCAR-3 ovarian): 4.61 µM
- TGI (OVCAR-3 ovarian): > 100 µM
- GI50 (OVCAR-4 ovarian): > 100 µM
- TGI (OVCAR-4 ovarian): > 100 µM
- GI50 (OVCAR-5 ovarian): 4.91 µM
- TGI (OVCAR-5 ovarian): > 100 µM
- GI50 (OVCAR-8 ovarian): 2.92 µM
- TGI (OVCAR-8 ovarian): > 100 µM
- GI50 (PC-3 prostate): 2.09 µM
- TGI (PC-3 prostate): > 100 µM
- GI50 (RPMI-8226 leukemia): 0.341 µM
- TGI (RPMI-8226 leukemia): > 56.4 µM
- GI50 (RXF 393 renal): 1.2 µM
- GI50 (SF-268 CNS): 0.892 µM
- TGI (SF-268 CNS): > 100 µM
- GI50 (SF-295 CNS): 0.0556 µM
- TGI (SF-295 CNS): 1.7 µM
- GI50 (SF-539 CNS): 0.226 µM
- TGI (SF-539 CNS): 1.33 µM
- GI50 (SK-MEL-2 melanoma): > 100 µM
- TGI (SK-MEL-2 melanoma): > 100 µM
- GI50 (SK-MEL-28 melanoma): > 52 µM
- TGI (SK-MEL-28 melanoma): > 100 µM
- GI50 (SK-MEL-5 melanoma): 0.18 µM
- TGI (SK-MEL-5 melanoma): 0.61 µM
- GI50 (SK-OV-3 ovarian): 0.217 µM
- TGI (SK-OV-3 ovarian): 4 µM
- GI50 (SN12C renal): 2.72 µM
- TGI (SN12C renal): > 100 µM
- GI50 (SNB-19 CNS): 0.271 µM
- TGI (SNB-19 CNS): > 100 µM
- GI50 (SNB-75 CNS): 0.254 µM
- TGI (SNB-75 CNS): > 64.5 µM
- GI50 (SR leukemia): 0.0606 µM
- TGI (SR leukemia): > 49 µM
- GI50 (SW-620 colon): 0.477 µM
- TGI (SW-620 colon): > 100 µM
- GI50 (T-47D breast): 0.185 µM
- TGI (T-47D breast): > 100 µM
- GI50 (TK-10 renal): > 100 µM
- TGI (TK-10 renal): > 100 µM
- GI50 (U251 CNS): 0.109 µM
- TGI (U251 CNS): 3.78 µM
- TGI (UACC-257 melanoma): > 100 µM
- GI50 (UACC-62 melanoma): 0.117 µM
- TGI (UACC-62 melanoma): > 100 µM
- GI50 (UO-31 renal): 0.499 µM
- TGI (UO-31 renal): > 100 µM
